From paper PMC13164762, “Development and Validation of an LC-MS/MS Method for the Quantitation of JNJ-64619178 (JNJ) in Mouse Plasma: Characterization of In Vitro and In Vivo Pharmacokinetic Properties” (Molecules, 2026)
Values after ≈ are worked out from the molar mass of the structure shown.

Columns and labels:
[1] = Stability of JNJ in mouse plasma at different storage conditions; type: in vitro ADME
Description: The stability of JNJ in mouse plasma was evaluated at three replicates of LQC and HQCs in different storage conditions. Studies were conducted with the study of bench-top stability for 4 h at room temperature, freeze–thaw stability (three freeze–thaw cycles), autosampler stability (4 °C for 48 h) and long-term stability (at −80 °C for 1 month). Samples were considered stable if the % drug remaining after storage conditions was within ±15% compared to the freshly prepared QC samples.

[2] = Kinetic solubility study; type: physicochemical; settings: PBS, room temperature, read-out: kinetic aqueous solubility
Description: An amount of 500 µL of PBS was taken into a 96-well plate in the required rows. The required volume of the JNJ stock solution was spiked to make the final concentrations of 160, 80, 60, 50, 40, 20, 10, and 5 µg mL^−1. The plate was vortexed at 1000 rpm for 5 min and incubated at room temperature for 2 h. After incubation, aliquots of 100 µL of the samples were collected and diluted 2 times with acetonitrile. Diluted samples were centrifuged at 2200× g for 10 min. Then, 10 µL of supernatant was added to another collection plate, where previously 200 µL of the mobile phase supplemented with 10 µL IS was taken.

[3] = Parallel artificial membrane permeability assay (PAMPA); type: physicochemical; settings: 5 µg mL^−1 in PBS, room temperature, read-out: apparent permeability (Papp), PAMPA
Description: A Corning® BioCoat™ Pre-coated PAMPA Plate System, obtained from Corning Life Sciences (Glendale, AZ, USA), was used for the noncell-based permeability assay. As per the manufacturer’s instructions, the PAMPA plate was warmed at room temperature for 30 min to make it ready for use. A JNJ stock solution was prepared in PBS at a concentration of 5 µg mL^−1. Then, 300 µL of that prepared solution was poured into the donor side and 200 µL PBS was added to the acceptor side of each well in triplicate. After incubation for 5 h at room temperature, 50 µL samples were collected separately from the donor and acceptor chamber. Finally, samples were processed following the extraction procedure and analyzed using LC-MS/MS analysis. The apparent permeability coefficient is determined using the following formula:(8) Papp=−ln[1 − Cat/Ceq]/A ∗ 1/Vd + 1/Va∗t where Papp = apparent permeability in cm s^−1, Co = initial compound concentration in donor well (µg mL^−1), Cd(t) = compound concentration in donor well at time t (µg mL^−1), Ca(t) = compound concentration in acceptor well at time t (µg mL^−1), Vd = donor well volume (0.3 mL), Va = acceptor well volume (0.2 mL), A = filter area (0.3 cm^2), and t = incubation time (18,000 s). Ceq is calculated by(9) Ceq=[Cd(t)∗Vd+Ca(t)∗Va] /(Vd+Va)

[4] = test system: HD-MB cell line; settings: method and reference not given; cited from earlier work

% Stability Recoveries (Mean ± SD), Autosampler (4 °C, 48 h) ([1]; HQC (375 ng mL^−1)): 110 ± 6%
% Stability Recoveries (Mean ± SD), Bench-Top (RT, 4 h) ([1]; HQC (375 ng mL^−1)): 101 ± 15%
% Stability Recoveries (Mean ± SD), Freeze–Thaw (−80 ± 5 °C After 3 Cycle) ([1]; HQC (375 ng mL^−1)): 94 ± 8%
% Stability Recoveries (Mean ± SD), Long-Term Stability (−80 ± 5 °C, 30 Days) ([1]; HQC (375 ng mL^−1)): 95 ± 8%
% Stability Recoveries (Mean ± SD), Autosampler (4 °C, 48 h) ([1]; LQC (0.5 ng mL^−1)): 110 ± 7%
% Stability Recoveries (Mean ± SD), Bench-Top (RT, 4 h) ([1]; LQC (0.5 ng mL^−1)): 91 ± 9%
% Stability Recoveries (Mean ± SD), Freeze–Thaw (−80 ± 5 °C After 3 Cycle) ([1]; LQC (0.5 ng mL^−1)): 93 ± 4%
% Stability Recoveries (Mean ± SD), Long-Term Stability (−80 ± 5 °C, 30 Days) ([1]; LQC (0.5 ng mL^−1)): 97 ± 9%
solubility kinetic at 2 h [2]: 3 ± 0.6 µg/mL (≈ 6.21 µM)
Papp at 5 h, 5 µg mL^−1 [3]: 70 ± 40 nm/s
Compound: Nc1nc2cc(CC[C@H]3C[C@@H](n4ccc5c(N)ncnc54)[C@H](O)[C@@H]3O)ccc2cc1Br [JNJ, JNJ-64619178]
IC50 [4]: 1.7 µM
In Vitro IC50 [4]: 0.821 mg/L
